Key:
human D2 receptor = target: T1, human D2 receptor (Homo sapiens, UniProt P14416); assay: Radioligand binding to cloned human D2 receptor expressed in HEK-293 EBNA cells ([3H]-spiperone); details: HEK293 EBNA cell membranes, approximately 0.7 nM [3H]-spiperone, 1 h at RT
T1 construct: expressed in transfected cells; host or cells: HEK293 EBNA cells, transient transfection; membrane preparation

human 5-HT2A receptor = human 5-HT2A receptor (Homo sapiens, UniProt P28223); assay: Radioligand binding to cloned human 5-HT2A receptor expressed in HEK-293 EBNA cells ([3H]-ketanserin)
Description: (§1) HEK293 EBNA cells were transiently transfected with expression plasmids encoding for the human D2 or D3 or for the human 5-HT2A receptor, respectively. The cells were harvested 48 h post-transfection, washed three times with cold PBS and stored at −80° C. prior to use. The pellet was suspended in cold 50 mM Tris-HCl buffer comprising 10 mM EDTA (pH 7.4) and was homogenized with a Polytron (Kinematica A G, Basel, Switzerland) for 20-30 sec at 12.000 rpm. After centrifugation at 48.000×g for 30 min at 4° C., the pellet was resuspended in cold 10 mM Tris-HCl buffer comprising 0.1 mM EDTA (pH 7.4), homogenized, and centrifuged as above. This pellet was further resuspended in a smaller volume of ice cold 10 mM Tris-HCl buffer comprising 0.1 mM EDTA (pH 7.4) and homogenized with a Polytron for 20-30 sec at 12.000 rpm. The protein content of this homogenate was determined with the Bio-Rad (Bradford) Protein Assay (Biorad Laboratories GmbH, München, Germany) according to the instructions of the manufacturer using gamma globulin as the standard. This homogenate was stored at −80° C. in aliquots and thawed immediately prior to use.
(§2) Aliquots of membrane preparations were thawed at RT, resupended in assay buffer (D2, D3: 50 mM Tris-HCl, 120 mM NaCl, 5 mM MgCl2, 1 mM EDTA, 5 mM KCl, 1.5 mM CaCl2, pH=7.4; 5-HT2A: 50 mM Tris-HCl, 10 mM MgCl2, 1 mM EGTA, pH=7.4), homogenized with a Polytron for 20-30 sec at 12.000 rpm and adjusted to a final concentration of approximately 7.5 μg protein/well (D2, D3) and 15 μg protein/well (5-HT2A), respectively.
(§3) The binding affinity (Ki) of the compounds was determined using radioligand binding. Membranes were incubated in a total volume of 200 μl with a fixed concentration of radioligand (final concentration approximately 0.7 nM [^3H]-spiperone for D2, 0.5 nM [^3H]-spiperone for D3, and 1.1 nM [^3H]-ketanserin for 5-HT2A) and ten concentrations of test compound in ranging between 10 μM-0.1 nM for 1 h at RT. At the end of the incubation, the reaction mixtures were filtered on to unifilter 96-well white microplates with bonded GF/C filters (Packard BioScience, Zürich, Switzerland; preincubated for 1 h in 0.1% polyethylenimine (PEI) in assay buffer) with a Filtermate 196 harvester (Packard BioScience) and washed 3 times with cold assay buffer. The nonspecific binding was determined with equally composed reaction mixtures in the presence of 10 μM unlabelled spiperone. Per well 45 μl of Microscint 40 (Perkin Elmer, Schwerzenbach, Switzerland) was added, plates for sealed, shaken for 20 min and counted for 3 min on a Topcount Microplate Scintillation Counter (Can berra Packard S A, Zürich, Switzerland) with quenching correction.
(§4) The CPM value for each duplicate of a concentration of competing compound was averaged (y1), then the % specific binding was calculated according to the equation (((y1−non-specific)/(total binding−non-specific))×100). Graphs were plotted with the % specific binding using XLfit, a curve fitting program that iteratively plots the data using Levenberg-Marquardt algorithm. The single site competition analysis equation used was y=A+((B−A)/(1+((x/C)D))), where y is the % specific binding, A is the minimum y, B is the maximum y, C is the IC50, x is the log 10 of the concentration of the competing compound and D is the slope of the curve (the Hill Coefficient). […] The affinity constant (Ki) was calculated using the Cheng-Prusoff equation Ki=(IC50/1+([L]/Kd), where [L] is the concentration of radioligand and Kd is the dissociation constant of the radioligand at the receptor as determined by the saturation isotherm.

human D3 receptor = human D3 receptor (Homo sapiens, UniProt P35462); assay: Radioligand binding to cloned human D3 receptor expressed in HEK-293 EBNA cells ([3H]-spiperone)
human D3 receptor, sequence (P35462 whole entry): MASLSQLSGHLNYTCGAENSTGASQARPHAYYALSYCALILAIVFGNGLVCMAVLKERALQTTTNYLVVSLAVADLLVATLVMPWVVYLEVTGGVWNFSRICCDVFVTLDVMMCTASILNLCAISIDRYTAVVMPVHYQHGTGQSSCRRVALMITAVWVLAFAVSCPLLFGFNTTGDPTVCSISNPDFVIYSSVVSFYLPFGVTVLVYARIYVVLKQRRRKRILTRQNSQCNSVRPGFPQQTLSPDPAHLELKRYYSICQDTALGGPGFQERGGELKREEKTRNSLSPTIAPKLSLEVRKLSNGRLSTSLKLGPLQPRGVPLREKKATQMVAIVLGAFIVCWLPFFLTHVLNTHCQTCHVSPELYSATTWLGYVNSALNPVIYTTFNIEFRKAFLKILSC
Description: as §1, §2, §3, §4

human 5-HT2A receptor, sequence (P28223 whole entry): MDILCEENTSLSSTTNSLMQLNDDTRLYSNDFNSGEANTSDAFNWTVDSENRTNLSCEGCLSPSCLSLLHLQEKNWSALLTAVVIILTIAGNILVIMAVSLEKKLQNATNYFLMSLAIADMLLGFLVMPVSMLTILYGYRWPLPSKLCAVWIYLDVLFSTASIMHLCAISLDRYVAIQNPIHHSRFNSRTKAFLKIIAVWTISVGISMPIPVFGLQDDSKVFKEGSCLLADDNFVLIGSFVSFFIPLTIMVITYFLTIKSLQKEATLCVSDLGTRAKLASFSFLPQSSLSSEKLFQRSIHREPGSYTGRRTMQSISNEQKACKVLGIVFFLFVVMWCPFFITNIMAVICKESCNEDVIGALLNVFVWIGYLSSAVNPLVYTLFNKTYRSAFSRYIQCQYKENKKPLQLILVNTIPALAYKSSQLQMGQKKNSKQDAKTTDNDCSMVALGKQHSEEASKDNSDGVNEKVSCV
T1 sequence (P14416 whole entry): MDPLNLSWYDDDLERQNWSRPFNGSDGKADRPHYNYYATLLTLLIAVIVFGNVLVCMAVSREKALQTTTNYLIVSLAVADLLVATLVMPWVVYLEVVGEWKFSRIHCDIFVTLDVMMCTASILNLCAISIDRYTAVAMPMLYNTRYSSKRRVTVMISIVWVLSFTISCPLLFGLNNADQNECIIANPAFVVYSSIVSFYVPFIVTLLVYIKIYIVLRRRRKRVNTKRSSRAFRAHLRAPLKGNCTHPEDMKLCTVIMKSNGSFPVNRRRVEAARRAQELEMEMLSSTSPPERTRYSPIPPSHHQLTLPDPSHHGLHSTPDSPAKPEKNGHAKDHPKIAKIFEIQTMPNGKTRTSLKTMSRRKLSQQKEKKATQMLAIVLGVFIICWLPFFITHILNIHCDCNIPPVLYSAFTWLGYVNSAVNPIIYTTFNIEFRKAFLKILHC

Row | SMILES | Ki (human D2 receptor) | Ki (human 5-HT2A receptor) | melting point | Ki (human D3 receptor)
1 | CN(C)C(=O)N[C@H]1CC[C@H](CCN2CCN(c3nccc4c3OCC4)CC2)CC1 [Example 94, trans-3-(4-{2-[4-(2,3-Dihydro-furo[2,3-c]pyridin-7-yl)-piperazin-1-yl]-ethyl}-cyclohexyl)-1,1-dimethyl-urea] | 429 nM | 135 nM | 217.5 °C | 82 nM
2 | O=S(=O)(N[C@H]1CC[C@H](CCN2CCN(c3nccc4c3OCC4)CC2)CC1)c1ccc(F)cc1 [Example 96, trans-N-(4-{2-[4-(2,3-Dihydro-furo[2,3-c]pyridin-7-yl)-piperazin-1-yl]-ethyl}-cyclohexyl)-4-fluoro-benzenesulfonamide] | 200 nM | 204 nM | 148 °C | 5.27 nM
3 | O=S(=O)(N[C@H]1CC[C@H](CCN2CCN(c3nccc4c3OCC4)CC2)CC1)c1ccccc1 [Example 99, trans-N-(4-{2-[4-(2,3-Dihydro-furo[2,3-c]pyridin-7-yl)-piperazin-1-yl]-ethyl}-cyclohexyl)-benzenesulfonamide] | 233 nM | 151 nM | 122.5 °C | 6 nM
4 | CO[C@H](C)C(=O)N[C@H]1CC[C@H](CCN2CCN(c3nccc4c3OCC4)CC2)CC1 [Example 100, trans-(R)—N-(4-{2-[4-(2,3-Dihydro-furo[2,3-c]pyridin-7-yl)-piperazin-1-yl]-ethyl}-cyclohexyl)-2-methoxy-propionamide] | 714 nM | 22.9 nM | 170.5 °C | 30.9 nM
5 | CC[C@@H](O)CC(=O)N[C@H]1CC[C@H](CCN2CCN(c3nccc4c3OCC4)CC2)CC1 [Example 103, (R)-3-Hydroxy-pentanoic acid trans-(4-{2-[4-(2,3-dihydro-furo[2,3-c]pyridin-7-yl)-piperazin-1-yl]-ethyl}-cyclohexyl)-amide] | 874 nM | 113 nM | 146 °C | 20.1 nM

Next, values leading:

Row | Ki (human D2 receptor) | Ki (human 5-HT2A receptor) | melting point | Ki (human D3 receptor) | SMILES
6 | 1750 nM | 53.3 nM | 188.5 °C | 12.2 nM | CO[C@H]1CC[C@H](CC(=O)N[C@H]2CC[C@H](CCN3CCN(c4nccc5c4OCC5)CC3)CC2)CC1 [Example 92, trans-N-(4-{2-[4-(2,3-Dihydro-furo[2,3-c]pyridin-7-yl)-piperazin-1-yl]-ethyl}-cyclohexyl)-trans-2-(4-methoxy-cyclohexyl)-acetamide]
7 | 832 nM | 30.7 nM | 219 °C | 38.4 nM | C[C@]1(O)CC[C@@H](C(=O)N[C@H]2CC[C@H](CCN3CCN(c4nccc5c4OCC5)CC3)CC2)CC1 [Example 93, cis-4-Hydroxy-4-methyl-cyclohexanecarboxylic acid trans-(4-{2-[4-(2,3-dihydro-furo[2,3-c]pyridin-7-yl)-piperazin-1-yl]-ethyl}-cyclohexyl)-amide]
8 | 641 nM | 31.1 nM | 128 °C | 10.8 nM | CN(C)S(=O)(=O)N[C@H]1CC[C@H](CCN2CCN(c3nccc4c3OCC4)CC2)CC1 [Example 95, N′-(trans-4-{2-[4-(2,3-Dihydro-furo[2,3-c]pyridin-7-yl)-piperazin-1-yl]-ethyl}cyclohexyl)-N,N-dimethylsulfamide]
9 | 420 nM | 31.6 nM | 175 °C | 4.88 nM | O=C(CC1COC1)N[C@H]1CC[C@H](CCN2CCN(c3nccc4c3OCC4)CC2)CC1 [Example 98, trans-N-(4-{2-[4-(2,3-Dihydro-furo[2,3-c]pyridin-7-yl)-piperazin-1-yl]-ethyl}-cyclohexyl)-2-oxetan-3-yl-acetamide]
10 | 478 nM | 50.6 nM | 155 °C | 11.8 nM | O=C(CC1(O)CCC1)N[C@H]1CC[C@H](CCN2CCN(c3nccc4c3OCC4)CC2)CC1 [Example 102, trans-N-(4-{2-[4-(2,3-Dihydro-furo[2,3-c]pyridin-7-yl)-piperazin-1-yl]-ethyl}-cyclohexyl)-2-(1-hydroxy-cyclobutyl)-acetamide]
